From publication PMC10349922 (Bioconjugate chemistry, 2023)

Target: human Galectin-3 (Gal-3); His-Galectin-3 (Homo sapiens, UniProt P17931)
Assay: competitive enzyme-linked lectin assay
Type: binding
Conditions: His-Galectin-3 vs S0G2-BSA coated plate, PBS, r.t.

Chain of human Galectin-3 (Gal-3); His-Galectin-3 (P17931 2-250): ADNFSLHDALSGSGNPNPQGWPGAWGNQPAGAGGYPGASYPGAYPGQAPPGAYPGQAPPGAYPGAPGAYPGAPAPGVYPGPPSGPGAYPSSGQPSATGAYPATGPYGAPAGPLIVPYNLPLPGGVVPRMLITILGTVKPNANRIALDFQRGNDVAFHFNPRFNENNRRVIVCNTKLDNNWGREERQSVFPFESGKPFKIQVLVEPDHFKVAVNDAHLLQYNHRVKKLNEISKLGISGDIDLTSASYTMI

SMILES: CC(=O)N[C@@H]1[C@@H](O)[C@H](O[C@@H]2O[C@H](CO)[C@@H](O[C@@H]3O[C@H](CO[C@H]4O[C@H](CO)[C@@H](O)[C@H](O)[C@@H]4O[C@@H]4O[C@H](CO)[C@@H](O[C@@H]5O[C@H](CO)[C@H](O)[C@H](O)[C@H]5O)[C@H](O)[C@H]4NC(C)=O)[C@@H](O)[C@H](O[C@H]4O[C@H](CO)[C@@H](O)[C@H](O)[C@@H]4O[C@@H]4O[C@H](CO)[C@@H](O[C@@H]5O[C@H](CO)[C@H](O)[C@H](O)[C@H]5O)[C@H](O)[C@H]4NC(C)=O)[C@@H]3O)[C@H](O)[C@H]2NC(C)=O)[C@@H](CO)O[C@H]1NC(=O)C[C@H](N)C(=O)O [compound 1, S0G2-Asn]
- IC50: 7.8 µM
